Test results published in patent US20240158447A1, “PEPTIDES FOR USE IN THE TREATMENT OR PREVENTION OF MYOCARDIAL DAMAGE” (THE UNIVERSITY OF WESTERN AUSTRALIA, priority 2020, published 2024).

Test system: cTnI-G203S mice
Experiment: Echocardiography of pre-cardiomyopathic cTnI-G203S mice (Example 15)
Type: in vivo, mouse
Conditions: 5 μM, 3×/wk/5 wk; versus AID(S)-TAT; FIG. 15
Description: Twenty to thirty week-old male mice expressing the human cTnI gene encoding the human disease-causing cTnI-G203S were generated and used for the in vivo studies. By way of background, the mice develop hallmark features of HCM between 20 and 25 weeks (Viola H, Johnstone V, Cserne Szappanos H, Richman T, Tsoutsman T, Filipovska A, et al. The L-type Ca(2+) channel facilitates abnormal metabolic activity in the cTnI-G2035 mouse model of hypertrophic cardiomyopathy. J Physiol. 2016; 594(14):4051-70; Viola H M, Shah A A, Johnstone V P A, Cserne Szappanos H, Hodson M P, Hool L C. Characterization and validation of a preventative therapy for hypertrophic cardiomyopathy in a murine model of the disease. Proc Nati Aced Sci U S A. 2020; 117(37):23113-24; Tsoutsman T, Chung J, Doolan A, Nguyen L, Williams IA, Tu E, et al. Molecular insights from a novel cardiac troponin I mouse model of familial hypertrophic cardiomyopathy. J Mol Cell Cardiol. 2006; 41(4):623-32). Age-matched male mice expressing the normal human troponin I gene were used as controls and indicated as wild-type (wt). For in vivo studies, 20-week old cTnI-G203S mice were treated with 10 μM AID(S)-TAT (2 mg/kg) or 5 μM AID-TAT mutant peptides via intraperitoneal injection, 3 times per week for a total duration of 5 weeks. The peptide was dissolved in phosphate buffered saline solution (PBS), and the total amount of the 10 μM AID-TAT mutant peptides administered over 5 weeks was 0.9 mg. The total amount of the 5 μM AID-TAT mutant peptides administered over 5 weeks was 0.45 mg Male mice were utilized to eliminate potential differences in responses due to gender. The number of mice used is indicated by N.
Echocardiographic studies to measure left ventricular function were performed on mice under light methoxyflurane anaesthesia with the use of an i13L probe on a Vivid™ 7 IQ ultrasound system (GE Healthcare, Little Chalfont, UK) as previously described (Viola H, Johnstone V, Cserne Szappanos H, Richman T, Tsoutsman T, Filipovska A, et al. The L-type Ca(2+) channel facilitates abnormal metabolic activity in the cTnI-G2035 mouse model of hypertrophic cardiomyopathy. J Physiol. 2016; 594(14):4051-70; Viola H M, Shah A A, Johnstone V P A, Cserne Szappanos H, Hodson M P, Hool L C. Characterization and validation of a preventative therapy for hypertrophic cardiomyopathy in a murine model of the disease. Proc Natl Acad Sci U S A. 2020; 117(37):23113-24; Viola H M, Johnstone V P A, Cserne Szappanos H, Richman T R, Tsoutsman T, Filipovska A, et al. The Role of the L-Type Ca(2+) Channel in Altered Metabolic Activity in a Murine Model of Hypertrophic Cardiomyopathy. JACC Basic Transl Sci. 2016; 1(1-2):61-72). Each N represents the average of quantitative measurements from wt or cTnI-G203S mice for each treatment group.

AIDP16-TAT: QQREEDLKGYLDWITQAE with TAT sequence
IVSd, intraventricular septum in diastole: restored IVSd and IVSs only
IVSs, intraventricular septum in systole: restored IVSd and IVSs only
